In patent publication US12441733B2, “Substituted 2,4-dioxotetrahydropyrimidines as intermediates in the synthesis of bruton's tyrosine kinase inhibitors” (Novartis AG, priority 2018, dated 2025):

System: TMD8 cells
Test: Resazurin cell viability (proliferation) assay in TMD8 DLBCL cells
Type: cell-based
Settings: Homo sapiens, TMD8 cells (BTK dependent), 72 h, 50% growth inhibition vs vehicle, read-out: TMD8 Prol GI50
Procedure, shortened: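 TMD8 cells were seeded at 1×10^4 per well and treated 3 h later with compound, in an 8-point 1:4 dilution series starting at 1 μM, or DMSO, for 72 h at 37° C. Resazurin was added at 13 μg/ml final for the last 2 h, and fluorescence was read at ex 530/em 600 nm. GI50 versus vehicle was derived by curve fitting from triplicates.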

Structure (SMILES)	GI50 [nM]
COc1ccc(C(=O)N2CCC3(CCN(CCc4ccc(-c5cc6c(-c7cc(F)cc(NC(=O)c8ccc(C(C)(C)O)cc8F)c7C)ncnc6[nH]5)cc4)CC3)CC2)cc1N1CCC(=O)NC1=O [Compound 31, N-(3-(6-(4-(2-(9-(3-(2,4-Dioxotetrahydropyrimidin-1(2H)-yl)-4-methoxybenzoyl)-3,9-diazaspiro[5.5]undecan-3-yl)ethyl)phenyl)-7H-pyrrolo[2,3-d]pyrimidin-4-yl)-5-fluoro-2-methylphenyl)-2-fluoro-4-(2-hydroxypropan-2-yl)benzamide]	0.46
Cc1c(NC(=O)c2ccc(C(C)(C)O)cc2F)cc(F)cc1-c1ncnc2[nH]c(-c3ccc(CN4CCC5(CC4)CCN(C(=O)c4ccc(F)c(N6CCC(=O)NC6=O)c4)CC5)cc3)cc12 [Compound 14, N-(3-(6-(4-((9-(3-(2,4-Dioxotetrahydropyrimidin-1(2H)-yl)-4-fluorobenzoyl)-3,9-diazaspiro[5.5]undecan-3-yl)methyl)phenyl)-7H-pyrrolo[2.3-d]pyrimidin-4-yl)-5-fluoro-2-methylphenyl)-2-fluoro-4-(2-hydroxypropan-2-yl)benzamide]	1.02
